“And” between values parts separate entries of the source, which are not always exact repeats. Equal entries are not always repeated. Where two headings read alike, the source gives them in different places. Some results are limits rather than exact numbers.

The target in series [1] is T1, Recombinant Human PARP1 (Homo sapiens, UniProt P09874).
T1 construct: purchased Trevigen
Briefly: PARP1 enzymatic inhibition assay (Universal Chemiluminescent PARP Assay Kit). Type of series: biochemical. The settings on record: mean ± SD, at least three independent experiments. The protocol:
The PARP1 enzymatic inhibition assay was performed by using Universal Chemiluminescent PARP Assay Kit (Trevigen, Gaithersburg, MD, USA) according to the manufacturer’s instruction and previous report. Briefly, serial dilutions of inhibitor were added to appropriate wells followed by addition of diluted PARP1 enzyme (0.5 Unit/well). After incubation for 10 min at room temperature, distributing 25 μL of 1X PARP Cocktail into each well and incubating the strip wells at room temperature for 60 min. The strip wells were washed with 1X PBS and 0.1% Triton X-100 for twice. Then 50 µL/well of diluted Strep-HRP was added to each well and incubate at room temperature for 60 min. After another wash with PBS, mixing equal volumes of PeroxyGlow™ A and B together and adding 100 µl per well. Finally, immediately taking the chemiluminescent readings. The IC50 values of PARP1 inhibitors were determined using Prism 6 software (GraphPad, San Diego, CA, USA).

Series [2] deals with MDA-MB-436 cells. Briefly: Cell migration assay (scratch wound). It is filed as cell-based. To be noted: 24 h. The protocol:
MDA-MB-436 cells were cultured in 24-well microplates and scratch-wounded by sterilized pipettes. Then the cells were washed with PBS and cultured with normal medium or OL-1. After 24 h incubation, pictures were taken by phase-contrast microscope.

The subject of series [3] is MDA-MB-436 xenograft. Briefly: MDA-MB-436 xenograft tumor model. It is filed as in vivo, BALB/c nude mice. The protocol:
All experiments protocols used in this study were carried out in accordance with guidelines of the animal ethics committee (Sichuan University). Thirty-two 6–8 weeks-old female BALB/c nude mice (18–20 g) were subcutaneously injected with MDA-MB-436 cells (1 × 10^7 cells/mouse). Until the tumor volumes reached 100 mm^3 (calculated as V = L × W^2/2), the mice were randomly divided into four groups. […] Body weight and the tumor size were determined every day until the end of the study. All mice were sacrificed at the end of drug treatment. The organs of mice such as spleen, liver and kidney were harvested and weighed. Tumor tissues were detached and fixed in 4% paraformaldehyde for immunohistochemistry or lysed for western blotting.
Immunohistochemical analysis was carried out by the method of our previous study. Samples were dehydrated using gradient ethanol, and subsequently paraffin embedded. The paraffin embedded samples were sliced into 5 μm thickness sections. […] Nuclei were counterstained with hematoxylin. The numbers of positive cells were counted in at least 6 fields for each section and statistical analyzed.

The subject of series [4] is MDA-MB-436 cells. Briefly: Apoptosis assay (Annexin V-FITC/PI double staining, flow cytometry). Type of series: cell-based. The settings on record: MDA-MB-436, 0.25-1 μM, 24 h. On the procedure: MDA-MB-436 cells (1 × 10^5 per well) were seeded into 6-well microplates in the presence or absence of OL-1 and cultured for 24 h, then incubated with 500 μL Hoechst 33258 staining solution (0.5 μg/mL) for 30 min at 37 °C. After staining, the apoptotic features were observed under fluorescence microscope. Apoptotic ratio was measured by Annexin-V-FLUOS Staining Kit (Roche, Germany) according to the manufacturer’s protocol followed by flow cytometry (FACS) analysis (Becton Dickinson, Franklin Lakes, NJ).
In general terms: In flow cytometry, cells or beads pass a laser one at a time.

Series [5] deals with Bax, Bcl-2, Caspase-3. Briefly: Western blot analysis of apoptotic markers. It is filed as cell-based. The settings on record: MDA-MB-436 cells. On the procedure: (§1) Western blot analysis was carried out briefly as previous description. MDA-MB-436 cells were exposed to OL-1 for indicated time. Both floating cells and adherent were collected. The cell pellets were resuspended with RIPA lysis buffer and PMSF (1 mM) (Beyotime, Haimen, Jiangsu, China) and lysed at 4 °C for 1 h. After 12,000 rpm centrifugation for 10 min, the supernatant was collected to determine the protein content by the BCA Protein Assay Kit (CWBIO, Beijing, China). […] After pre-blocking in TBST with 5% non-fat milk or BSA for 1 h, the membranes were incubated with primary antibodies overnight at 4 °C, and subsequently incubated with HRP-conjugated secondary antibody at room temperature for 1–2 h. Positive signals were detected by using ECL as the HRP substrate after washing with TBST solution.

Series [6] deals with MDA-MB-436 cells. Briefly: Cell viability assay (MTT). Type of series: cell-based. The settings on record: Homo sapiens. The protocol: 5 × 10^3 cells were seeded into each well in 96-well microplates and cultured for 24 h. […] After drug treatment, the cell viabilities were detected by MTT assay.
The test system of series [7] is PARP1 and PAR. Briefly: Western blot analysis of PARP1 and PAR in treated cells. It is filed as cell-based. The settings on record: MDA-MB-436 cells. The protocol:
as §1

Setting [8] is: recombinant human PARP1, read-out: Enzymatic inhibition (IC50, μM) PARP1.
Setting [9] is: high dose 25 mg/kg/d i.p., 14 days, vs Iniparib 100 mg/kg/d and low dose 12.5 mg/kg/d, P < 0.05.
Where [10] appears, read: MDA-MB-436 cells (BRAC1 mutant breast cancer), mean ± SD, at least three independent experiments, read-out: Anti-cell viability (IC50, μM) MDA-MB-436.

T1 sequence (P09874 whole entry): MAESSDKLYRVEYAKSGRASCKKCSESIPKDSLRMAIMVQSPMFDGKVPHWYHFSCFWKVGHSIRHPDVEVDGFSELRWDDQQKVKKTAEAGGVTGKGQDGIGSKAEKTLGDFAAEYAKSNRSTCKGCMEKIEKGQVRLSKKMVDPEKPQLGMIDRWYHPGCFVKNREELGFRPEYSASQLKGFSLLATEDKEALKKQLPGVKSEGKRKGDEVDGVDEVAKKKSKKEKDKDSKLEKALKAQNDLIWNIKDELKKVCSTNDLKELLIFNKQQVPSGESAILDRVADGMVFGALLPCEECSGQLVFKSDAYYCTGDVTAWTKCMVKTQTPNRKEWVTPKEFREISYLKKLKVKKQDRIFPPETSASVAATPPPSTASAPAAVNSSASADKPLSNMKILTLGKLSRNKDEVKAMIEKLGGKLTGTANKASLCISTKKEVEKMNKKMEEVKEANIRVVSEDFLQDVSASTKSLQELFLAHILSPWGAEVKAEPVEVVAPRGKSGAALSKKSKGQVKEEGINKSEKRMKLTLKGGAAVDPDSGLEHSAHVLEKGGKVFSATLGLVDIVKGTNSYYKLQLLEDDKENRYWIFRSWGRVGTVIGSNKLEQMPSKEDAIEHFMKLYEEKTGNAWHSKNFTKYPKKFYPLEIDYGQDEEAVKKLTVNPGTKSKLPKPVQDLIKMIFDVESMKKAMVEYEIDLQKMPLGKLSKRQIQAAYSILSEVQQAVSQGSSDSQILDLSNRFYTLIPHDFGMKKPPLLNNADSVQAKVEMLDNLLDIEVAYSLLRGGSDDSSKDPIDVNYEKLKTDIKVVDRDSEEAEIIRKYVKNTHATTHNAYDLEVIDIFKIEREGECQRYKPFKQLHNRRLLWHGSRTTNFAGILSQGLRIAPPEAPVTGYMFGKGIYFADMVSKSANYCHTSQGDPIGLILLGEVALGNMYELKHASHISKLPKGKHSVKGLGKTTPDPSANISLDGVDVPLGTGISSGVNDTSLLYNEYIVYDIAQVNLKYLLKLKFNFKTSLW

A word on the IC50: it is the concentration needed to halve the response being measured. For the compound `COCCCNC(=O)Cc1ccc2c(c1)C(=CCCN(C)C)c1ccccc1CO2` [Compound 33o], in series [1] (setting [8]), the IC50 is over 20 µM.

Turning to `CN(C)CCCC=C1c2ccccc2Oc2ccccc21` [Compound 28c], in series [1] (setting [8]), the IC50 is over 20 µM.

On to `CNCC=C1c2ccccc2CCc2ccccc21` [Compound 11a], for which the IC50 in series [1] (setting [8]) is over 20 µM.

Regarding `Clc1ccc(C=C2c3ccccc3CCc3ccccc32)cc1` [Compound 15c], in series [1] (setting [8]), the IC50 was over 20 µM.

For `CN(C)CCCC=C1c2ccccc2COc2ccccc21` [Compound 19c], the IC50 in series [1] (setting [8]) is over 20 µM.

Regarding `CN(C)CC/C=C1/c2ccccc2COc2ccc(CC(=O)NN)cc21` [33e (OL-1)], the IC50 in series [1] (Enzymatic inhibition (IC50, μM) PARP1, recombinant human PARP1) came to 0.079 ± 0.013 µM. Also, the cell migration entry in series [2] is given as “could inhibit cell migration”. In addition, the “loss of body weight” value in series [3] (25 mg/kg/d i.p., during the 14 days of treatment, P < 0.01) is listed as 10.05%. Further, in series [3] (OL-1 treated groups (12.5 and 25 mg/kg/d i.p.)), the “liver, spleen and kidney weights” value is “not changed”. For the same compound, in series [3] (setting [9]), the tumor volumes entry is “lower than the positive control” and the tumor weights entry is given as “lower than the positive control”. In addition, in series [3] (immunohistochemistry, compared to the control group), the “positive ratio of Ki-67 in tumor tissues” value is “significantly reduced”. Besides, the “decrease of body weights” value in series [3] (low dose 12.5 mg/kg/d i.p., 14 days) is listed as “not obvious”. Also, the apoptotic cell ratio entry in series [4] is given as “obviously increased in a concentration-dependent manner”. In series [5], the Bax expression result is recorded as “upregulated”, the Bcl-2 expression entry is reported as “downregulated” and the “cleavage of caspase-3” value is on record as “increased”. Moreover, the IC50 in series [6] (BRCA1 mutant MDA-MB-436 cells, MTT, Fig. 11A, read-out: anti-proliferative effects IC50) was found to be 5.14 µM. In addition, the IC50 in series [6] (setting [10]) was 0.736 ± 0.223 µM. Also, the “expression of PAR (western blot)” value in series [7] is on record as “decreased”. The “activity of PARP (western blot)” value in series [7] (no cleavage of PARP) is recorded as “significantly inhibited”.

Regarding `CN(C)CCC=C1c2ccccc2CSc2ccccc21` [Compound 23b], the figures for the IC50 in series [1] (setting [8]) and in series [6] (setting [10]) were 1.04 ± 0.17 µM and 17.9 ± 2.11 µM, respectively.

`CNCCCC=C1c2ccccc2CCc2ccccc21` [Compound 11e]: the IC50 in series [1] (setting [8]) was over 20 µM.

As to `COC(=O)Cc1ccc2c(c1)C(=CCCN(C)C)c1ccccc1CO2` [Compound 33a], the IC50 in series [1] (setting [8]) was 9.11 µM and 19.1 µM; in series [6] (setting [10]), over 20 µM.

For `Fc1ccc(C=C2c3ccccc3CCc3ccccc32)cc1` [Compound 15b], the IC50 in series [1] (setting [8]) is over 20 µM.

As for `Brc1ccc(C=C2c3ccccc3CCc3ccccc32)cc1` [Compound 15d], in series [1] (setting [8]), the IC50 is over 20 µM.

Take `CCOC(=O)Cc1ccc2c(c1)C(=CCCN(C)C)c1ccccc1CO2` [Compound 33b]: the IC50 in series [1] (setting [8]) was over 20 µM.

For `CN(C)CCC=C1c2ccccc2Cc2ccccc21` [Compound 26b], the IC50 in series [1] (setting [8]) is 17.9 ± 2.46 µM; in series [6] (setting [10]) it was over 20 µM.

As for `CN(C)CC=C1c2ccccc2Oc2ccccc21` [Compound 28a], the IC50 in series [1] (setting [8]) is over 20 µM.

`C(=C1c2ccccc2CCc2ccccc21)c1ccccc1` [Compound 15a]: the IC50 in series [1] (setting [8]) was over 20 µM.

Regarding `CN(C)CC=C1c2ccccc2CSc2ccccc21` [Compound 23a], the IC50 in series [1] (setting [8]) was 19.2 ± 3.05 µM; in series [6] (setting [10]), over 20 µM.

For the compound `CNCCC=C1c2ccccc2CCc2ccccc21` [Compound 11c], the IC50 in series [1] (setting [8]) was 4.21 µM and 14.2 µM; in series [6] (setting [10]) it was over 20 µM.

Consider `CN(C)CC=C1c2ccccc2COc2ccccc21` [Compound 19a], for which the IC50 in series [1] (setting [8]) was 13.2 ± 2.33 µM; in series [6] (setting [10]) it was over 20 µM.

With `Cc1ccc(C=C2c3ccccc3CCc3ccccc32)cc1` [Compound 15e], the IC50 in series [1] (setting [8]) is over 20 µM.

For `CN(C)CCC=C1c2ccccc2COc2ccc(CC(=O)NC3CC3)cc21` [Compound 33n], the IC50 in series [1] (setting [8]) was over 20 µM.

As for `NC(=O)c1ccc(I)c([N+](=O)[O-])c1` [Iniparib, reference compound], the liver weights entry in series [3] (100 mg/kg/d, 14 days, P < 0.01) is “significantly decreased”. In addition, the spleen weights entry in series [3] (100 mg/kg/d, 14 days, P < 0.05) is recorded as “affected”. In addition, the IC50 in series [6] (setting [10]) is 14.3 ± 1.56 µM.

Take `CN(C)CCCC=C1c2ccccc2CCc2ccccc21` [Compound 11f]: in series [1] (setting [8]), the IC50 is over 20 µM.

Take `CN(C)CCCC=C1c2ccccc2Cc2ccccc21` [Compound 26c]: in series [1] (setting [8]), the IC50 is over 20 µM.

With `CN(C)CC=C1c2ccccc2CCc2ccccc21` [Compound 11b], the IC50 in series [1] (setting [8]) is 16.2 ± 1.24 µM; in series [6] (setting [10]), over 20 µM.

For the compound `CN(C)CCCC=C1c2ccccc2CSc2ccccc21` [Compound 23c], the IC50 in series [1] (setting [8]) was over 20 µM.

With `CN(C)CC/C=C1/c2ccccc2COc2ccc(CC(=O)O)cc21` [Compound 31], the figures for the IC50 in series [1] (setting [8]) and in series [6] (setting [10]) were 11.2 ± 1.16 µM and over 20 µM, respectively.

Consider `CN(C)CCC=C1c2ccccc2COc2ccccc21` [Compound 19b], for which the IC50 in series [1] (setting [8]) came out at 0.75 ± 0.27 µM.

For the compound `CC(C)NC(=O)Cc1ccc2c(c1)C(=CCCN(C)C)c1ccccc1CO2` [Compound 33j], the IC50 in series [1] (setting [8]) amounted to 7.35 ± 1.32 µM; in series [6] (setting [10]) it was 8.23 ± 1.56 µM.

Regarding `CN(C)CC=C1c2ccccc2Cc2ccccc21` [Compound 26a], the IC50 in series [1] (setting [8]) was over 20 µM.

Consider `CN(C)CCC=C1c2ccccc2CCc2ccccc21` [11d (PA-10), 3-(10,11-dihydro-5H-dibenzo[a,d][7]annulen-5-ylidene)-N,N-dimethylpropan-1-amine], for which the IC50 in series [1] (setting [8]) came out at 1.65 ± 0.25 µM; in series [6] (setting [10]) it was 5.44 ± 1.01 µM.

Consider `O=C(c1cc(Cc2n[nH]c(=O)c3ccccc23)ccc1F)N1CCN(C(=O)C2CC2)CC1` [Olaparib, reference compound], for which the 50% inhibitory concentration (IC50) in series [6] (MDA-MB-436, read-out: Anti-cell viability (IC50, μM) MDA-MB-436) was 1.12 ± 0.77 µM.

As to `CN(C)CCC=C1c2ccccc2Oc2ccccc21` [Compound 28b], the IC50 in series [1] (setting [8]) was over 20 µM.

`CN(C)CCC=C1c2ccccc2COc2ccc(CC(=O)NCCO)cc21` [Compound 33k]: the values for the IC50 in series [1] (setting [8]) and in series [6] (setting [10]) were 19.1 ± 2.16 µM and over 20 µM, respectively.

Values taken from PMC5431371, “Crystal structure-based discovery of a novel synthesized PARP1 inhibitor (OL-1) with apoptosis-inducing mechanisms in triple-negative breast cancer” (Scientific Reports, 2016).
